Assay results as given in patent publication US12473304B2, “Heterocyclic PAD4 inhibitors” (BRISTOL-MYERS SQUIBB COMPANY, priority 2020, dated 2025).

Biological target: human PAD4 (hPAD4) (Homo sapiens (Human), UniProt Q9UM07)
Assay: RFMS Human PAD4 Functional Assay 1
Format: biochemical
Details: RFMS assay 1; 5 nM hPAD4, 250 μM BAEE substrate, 50 μM calcium, 37° C.
How it was run: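 Citrullination product read by RapidFire triple-quad MRM against a modified-citrulline internal standard, after TCA stop and 30 min phenyl glyoxal step at 37 °C. Reaction: 250 μM BAEE, 5 nM human PAD4, 90 min at 37 °C, pH 7.5 HEPES buffer with 50 μM calcium and 5 μM TPEN, following 30 min compound–enzyme preincubation (max 50 μM).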

Chain of human PAD4 (hPAD4) (Q9UM07 whole entry): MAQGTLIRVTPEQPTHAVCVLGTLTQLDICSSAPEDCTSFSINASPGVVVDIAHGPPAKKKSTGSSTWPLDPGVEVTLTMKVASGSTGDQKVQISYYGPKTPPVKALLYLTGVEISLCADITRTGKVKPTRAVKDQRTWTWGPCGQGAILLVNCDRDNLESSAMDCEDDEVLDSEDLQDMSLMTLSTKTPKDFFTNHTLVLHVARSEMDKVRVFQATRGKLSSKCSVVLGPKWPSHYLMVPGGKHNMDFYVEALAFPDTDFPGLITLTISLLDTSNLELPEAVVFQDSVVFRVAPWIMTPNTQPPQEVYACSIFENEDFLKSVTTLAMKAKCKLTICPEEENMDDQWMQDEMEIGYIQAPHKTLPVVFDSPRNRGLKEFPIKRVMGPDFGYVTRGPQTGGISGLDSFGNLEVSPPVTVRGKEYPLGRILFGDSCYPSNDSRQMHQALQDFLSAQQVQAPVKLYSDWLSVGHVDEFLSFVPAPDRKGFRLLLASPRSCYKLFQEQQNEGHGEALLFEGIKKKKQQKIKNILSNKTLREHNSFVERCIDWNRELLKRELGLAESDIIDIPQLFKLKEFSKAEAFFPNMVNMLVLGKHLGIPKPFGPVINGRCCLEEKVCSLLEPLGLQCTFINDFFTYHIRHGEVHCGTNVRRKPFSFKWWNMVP

Row | Compound | IC50 [µM]
1 | COc1cc(C(=O)N2C[C@H](N)C[C@@H](F)C2)cc2sc(-c3cc4ccc(N5CCC(OC)CC5)nc4n3CC3CC3)c(C)c12 [Example 142, ((3R,5R)-3-Amino-5-fluoropiperidin-1-yl)(2-(1-(cyclopropylmethyl)-6-(4-methoxypiperidin-1-yl)-1H-pyrrolo[2,3-b]pyridin-2-yl)-4-methoxy-3-methylbenzo[b]thiophen-6-yl)methanone] | 0.642
2 | COc1cc(C(=O)N2C[C@H](N)C[C@@H](F)C2)cc2sc(-c3cc4ccc(-c5ccc6c(c5)C(=O)NC6)cc4n3CC3CC3)c(C)c12 [Example 143, 6-(2-(6-((3R,5R)-3-Amino-5-fluoropiperidine-1-carbonyl)-4-methoxy-3-methylbenzo[b]thiophen-2-yl)-1-(cyclopropylmethyl)-1H-indol-6-yl)isoindolin-1-one] | 0.588
3 | COc1cc(C(=O)N2C[C@H](N)C[C@@H](F)C2)cc2sc(-c3cc4ccc(-c5ccc6c(c5)CNC6=O)cc4n3CC3CC3)c(C)c12 [Example 144, 5-(2-(6-((3R,5R)-3-Amino-5-fluoropiperidine-1-carbonyl)-4-methoxy-3-methylbenzo[b]thiophen-2-yl)-1-(cyclopropylmethyl)-1H-indol-6-yl)isoindolin-1-one] | 0.164
4 | COc1cc(C(=O)N2CC3CCC2[C@@H]3N)cc2oc(-c3cc4cccnc4n3CC3CC3)c(C)c12 (stereo partly drawn) [Example 145, ((7R)-7-Amino-2-azabicyclo[2.2.1]heptan-2-yl)(2-(1-(cyclopropylmethyl)-1H-pyrrolo[2,3-b]pyridin-2-yl)-4-methoxy-3-methylbenzofuran-6-yl)methanone] | 0.285
5 | COc1cc(C(=O)N2CC3CCC2[C@@H]3N)cc2oc(-c3cc4ccc(Cl)nc4n3CC3CC3)c(C)c12 (stereo partly drawn) [Example 146, ((7R)-7-Amino-2-azabicyclo[2.2.1]heptan-2-yl)(2-(6-chloro-1-(cyclopropylmethyl)-1H-pyrrolo[2,3-b]pyridin-2-yl)-4-methoxy-3-methylbenzofuran-6-yl)methanone] | 1.21
6 | COc1cc(C(=O)N2C[C@H](N)C[C@@H](F)C2)cc2oc(-c3cc4cccnc4n3CC3CC3)c(C)c12 [Example 147, ((3R,5R)-3-Amino-5-fluoropiperidin-1-yl)(2-(1-(cyclopropylmethyl)-1H-pyrrolo[2,3-b]pyridin-2-yl)-4-methoxy-3-methylbenzofuran-6-yl)methanone] | 0.954
7 | COc1cc(C(=O)N2CC3CCC2[C@@H]3N)cc2oc(-c3cc4ccccc4n3CC3CC3)c(C)c12 (stereo partly drawn) [Example 148, ((7R)-7-Amino-2-azabicyclo[2.2.1]heptan-2-yl)(2-(1-(cyclopropylmethyl)-1H-indol-2-yl)-4-methoxy-3-methylbenzofuran-6-yl)methanone] | 0.442
8 | COc1cc(C(=O)N2CC3CCC2[C@@H]3N)cc2oc(-c3cc4ccc(-c5ccc6c(c5)CNC6=O)cc4n3CC3CC3)c(C)c12 (stereo partly drawn) [Example 149, 5-(2-(6-((7R)-7-Amino-2-azabicyclo[2.2.1]heptane-2-carbonyl)-4-methoxy-3-methylbenzofuran-2-yl)-1-(cyclopropylmethyl)-1H-indol-6-yl)isoindolin-1-one] | 0.111
9 | COc1cc(C(=O)N2CC3CCC2[C@@H]3N)cc2oc(-c3cc4ccc(-c5ccc6c(c5)C(=O)NC6)cc4n3CC3CC3)c(C)c12 (stereo partly drawn) [Example 150, 6-(2-(6-((7R)-7-Amino-2-azabicyclo[2.2.1]-heptane-2-carbonyl)-4-methoxy-3-methylbenzofuran-2-yl)-1-(cyclopropylmethyl)-1H-indol-6-yl)isoindolin-1-one] | 0.187
10 | COc1cc(C(=O)N2CC3CCC2[C@@H]3N)cc2oc(-c3cc4ccc(C)cc4n3CC3CC3)c(C)c12 (stereo partly drawn) [Example 151, ((7R)-7-Amino-2-azabicyclo[2.2.1]heptan-2-yl)(2-(1-(cyclopropylmethyl)-6-methyl-1H-indol-2-yl)-4-methoxy-3-methylbenzofuran-6-yl)methanone] | 0.325
11 | COc1cc(C(=O)N2CC3CCC2[C@@H]3N)cc2oc(-c3cc4ccc(-c5ccc(C(N)=O)c(F)c5)cc4n3CC3CC3)c(C)c12 (stereo partly drawn) [Example 152, 4-(2-(6-((7R)-7-Amino-2-azabicyclo[2.2.1]heptane-2-carbonyl)-4-methoxy-3-methylbenzofuran-2-yl)-1-(cyclopropylmethyl)-1H-indol-6-yl)-2-fluorobenzamide] | 0.192
12 | COc1cc(C(=O)N2CC3CCC2[C@@H]3N)cc2oc(-c3cc4ccc(-c5ccc(C(N)=O)c(Cl)c5)cc4n3CC3CC3)c(C)c12 (stereo partly drawn) [Example 153, 4-(2-(6-((7R)-7-Amino-2-azabicyclo[2.2.1]heptane-2-carbonyl)-4-methoxy-3-methylbenzofuran-2-yl)-1-(cyclopropylmethyl)-1H-indol-6-yl)-2-chlorobenzamide] | 0.628
13 | COc1cc(C(=O)N2CC3CCC2[C@@H]3N)cc2oc(-c3cc4ccc(-c5ccc(O)c(F)c5)cc4n3CC3CC3)c(C)c12 (stereo partly drawn) [Example 154, ((7R)-7-Amino-2-azabicyclo[2.2.1]heptan-2-yl)(2-(1-(cyclopropylmethyl)-6-(3-fluoro-4-hydroxyphenyl)-1H-indol-2-yl)-4-methoxy-3-methylbenzofuran-6-yl)methanone] | 1.01

The remaining lines, values ahead:

Row | IC50 [µM] | Compound
14 | 0.173 | COc1cc(C(=O)N2CC3CCC2[C@@H]3N)cc2oc(-c3cc4ccc(C5CC5)cc4n3CC3CC3)c(C)c12 (stereo partly drawn) [Example 156, ((7R)-7-Amino-2-azabicyclo[2.2.1]heptan-2-yl)(2-(6-cyclopropyl-1-(cyclopropylmethyl)-1H-indol-2-yl)-4-methoxy-3-methylbenzofuran-6-yl)methanone]
15 | 0.095 | COc1cc(C(=O)N2CC3CCC2[C@@H]3N)cc2oc(-c3cc4ccc(-c5ccn6c(C)nnc6c5)cc4n3CC3CC3)c(C)c12 (stereo partly drawn) [Example 157, ((7R)-7-Amino-2-azabicyclo[2.2.1]heptan-2-yl)(2-(1-(cyclopropylmethyl)-6-(3-methyl-[1,2,4]triazolo[4,3-a]pyridin-7-yl)-1H-indol-2-yl)-4-methoxy-3-methylbenzofuran-6-yl)methanone]
16 | 1.21 | COc1cc(C(=O)N2CC3CCC2[C@@H]3N)cc2oc(-c3cc4ccc(N5CCC(OC)CC5)cc4n3CC3CC3)c(C)c12 (stereo partly drawn) [Example 159, ((7R)-7-Amino-2-azabicyclo[2.2.1]heptan-2-yl)(2-(1-(cyclopropylmethyl)-6-(4-methoxypiperidin-1-yl)-1H-indol-2-yl)-4-methoxy-3-methylbenzofuran-6-yl)methanone]
17 | 0.048 | COc1cc(C(=O)N2CC3CCC2[C@@H]3N)cc2oc(-c3cc4ccc(N5CCC(N)CC5)cc4n3CC3CC3)c(C)c12 (stereo partly drawn) [Example 160, ((7R)-7-Amino-2-azabicyclo[2.2.1]heptan-2-yl)(2-(6-(4-aminopiperidin-1-yl)-1-(cyclopropylmethyl)-1H-indol-2-yl)-4-methoxy-3-methylbenzofuran-6-yl)methanone]
18 | 0.487 | COc1cc(C(=O)N2C[C@H](N)C[C@@H](F)C2)cc2oc(-c3cc4ccccc4n3CC3CC3)c(C)c12 [Example 161, ((3R,5R)-3-Amino-5-fluoropiperidin-1-yl)(2-(1-(cyclopropylmethyl)-1H-indol-2-yl)-4-methoxy-3-methylbenzofuran-6-yl)methanone]
19 | 2.29 | COc1cc(C(=O)N2C[C@H](N)C[C@@H](F)C2)cc2oc(-c3cc4ccc(-c5ccc(C(N)=O)c(Cl)c5)cc4n3CC3CC3)c(C)c12 [Example 162, 4-(2-(6-((3R,5R)-3-Amino-5-fluoropiperidine-1-carbonyl)-4-methoxy-3-methylbenzofuran-2-yl)-1-(cyclopropylmethyl)-1H-indol-6-yl)-2-chlorobenzamide]
20 | 5.59 | COc1cc(C(=O)N2C[C@H](N)C[C@@H](F)C2)cc2oc(-c3cc4ccc(-c5cccc(O)c5F)cc4n3CC3CC3)c(C)c12 [Example 163, ((3R,5R)-3-Amino-5-fluoropiperidin-1-yl)(2-(1-(cyclopropylmethyl)-6-(2-fluoro-3-hydroxyphenyl)-1H-indol-2-yl)-4-methoxy-3-methylbenzofuran-6-yl)methanone]
21 | 0.625 | Cc1c(-c2cc3cccnc3n2CC2CC2)oc2cc(C(=O)N3CC4CCC3[C@@H]4N)ccc12 (stereo partly drawn) [Example 164, ((7R)-7-Amino-2-azabicyclo[2.2.1]heptan-2-yl)(2-(1-(cyclopropylmethyl)-1H-pyrrolo[2,3-b]pyridin-2-yl)-3-methylbenzofuran-6-yl)methanone]
22 | 0.198 | Cc1c(-c2cc3ccc(Cl)nc3n2CC2CC2)oc2cc(C(=O)N3CC4CCC3[C@@H]4N)ccc12 (stereo partly drawn) [Example 165, ((7R)-7-Amino-2-azabicyclo[2.2.1]heptan-2-yl)(2-(6-chloro-1-(cyclopropylmethyl)-1H-pyrrolo[2,3-b]pyridin-2-yl)-3-methylbenzofuran-6-yl)methanone]
23 | 0.056 | Cc1c(-c2cc3ccc(-c4ccc5c(c4)C(=O)NC5)nc3n2CC2CC2)oc2cc(C(=O)N3CC4CCC3[C@@H]4N)ccc12 (stereo partly drawn) [Example 166, 6-(2-(6-((7R)-7-Amino-2-azabicyclo[2.2.1]heptane-2-carbonyl)-3-methylbenzofuran-2-yl)-1-(cyclopropylmethyl)-1H-pyrrolo[2,3-b]pyridin-6-yl)isoindolin-1-one]
24 | 0.045 | Cc1c(-c2cc3ccc(-c4ccn5c(C)nnc5c4)nc3n2CC2CC2)oc2cc(C(=O)N3CC4CCC3[C@@H]4N)ccc12 (some centres unmarked) [Example 167]
25 | 0.047 | Cc1c(-c2cc3ccc(-c4ccc5c(c4)CNC5=O)nc3n2CC2CC2)oc2cc(C(=O)N3CC4CCC3[C@@H]4N)ccc12 (stereo partly drawn) [Example 168, 5-(2-(6-((7R)-7-Amino-2-azabicyclo[2.2.1]heptane-2-carbonyl)-3-methylbenzofuran-2-yl)-1-(cyclopropylmethyl)-1H-pyrrolo[2,3-b]pyridin-6-yl)isoindolin-1-one]
26 | 0.181 | Cc1c(-c2cc3ccc(-c4cccc(O)c4F)nc3n2CC2CC2)oc2cc(C(=O)N3CC4CCC3[C@@H]4N)ccc12 (stereo partly drawn) [Example 169, ((7R)-7-Amino-2-azabicyclo[2.2.1]heptan-2-yl)(2-(1-(cyclopropylmethyl)-6-(2-fluoro-3-hydroxyphenyl)-1H-pyrrolo[2,3-b]pyridin-2-yl)-3-methylbenzofuran-6-yl)methanone]
